Measurements from patent publication US7052909B1, “Method for activating NKT cells using PIMs” (priority 1999, dated 2006).

What was measured:
NKT cells = assay: NKT-cell recruitment at the site of injection, Vα14-Jα281 mRNA by RT-PCR and Immunoscope; assay type: in vivo, mouse; settings: C57BL/6 mice, s.c., adsorbed on Alu-Gel-S, day 7, RT-PCR, compared with Alu-Gel-S alone
C57BL/6 mice = assay: Formation of lesions of the granulomatous type after subcutaneous injection in mice; assay type: in vivo, mouse; settings: s.c., adsorbed onto Alu-Gel-S

CC(=O)N[C@H]1C(O)O[C@H](CO)[C@@H](O)[C@@H]1O[C@H](C)C(=O)N[C@@H](C)C(=O)N[C@H](CCC(=O)O)C(N)=O (mixture of isomers) [MDP, muramyl-dipeptide]
activity of NKT-cell recruitment (Vα14-Jα281 mRNA) (NKT cells): without increasing the Vα14-Jα281 mRNA
cell infiltrate at site of injection (C57BL/6 mice): produced a cellular infiltrate
